Measured values reported in US11377473B2, “Albumin-binding prodrugs of auristatin E derivatives” (priority 2017, dated 2022).

Columns and labels:
[1] = test system: malignant melanoma cancer model A375; experiment: Human malignant melanoma cancer model A375, small tumors; assay type: in vivo, NMRI nude mice
Protocol: Feed and water were provided ad libitum. […] Identification used: ear mark and cage labels. […] Tumor volumes were calculated according to the following equation: […]
The evaluation of auristatin E and the albumin-binding auristatin E derivative AE-Keto-Sulf07 in a human malignant melanoma cancer model A375 was carried out as described in the general procedure for cell-line-derived xenograft models.
Stock solutions were prepared as follows: • 1) 7 mice, 29 g average weight, 135 mm^3 average median tumor volume on day of randomization: 0.3 mg/kg auristatin E TFA salt (AE equiv.) dosed twice weekly for 3 weeks on day 0, 6, 9, 13, 16, 19≡0.35 mg/kg≡7.1 μg/20 g mouse.

[2] = Reconstitution stability (maleimide hydrolysis, loss of API) in reconstitution buffer; assay type: physicochemical; conditions: for stability of the reconstituted drug (maleimide hydrolysis and loss of API): 50 mM sodium phosphate buffer pH 7.6, 5% sucrose, 2-HPβCD, room temperature, 240 minutes; for maleimide hydrolyzed: after 4 hours incubation at room temperature in reconstitution buffer (50 mM sodium phosphate pH 7.65 containing 4% HPβCD and 5% sucrose)
Protocol: (§1) The albumin-binding AE-Keto drug derivatives were reconstituted in 50 mM sodium phosphate buffer pH 7.6 which contained 5% sucrose (w/v) and 2% 2-hydroxypropyl-β-cyclodextrin (2-HPβCD). Both drugs were reconstituted at a concentration of 1277 μM (equal to 4.5 mg/kg murine xenograft dose), the dissolution of both drugs was confirmed by HPLC (method 2, 254 nm). Stability of the reconstituted drugs was monitored by HPLC at room temperature every 15 minutes over a period of 240 minutes for maleimide hydrolysis and loss of API.
as §1, with “AE-Ester” for “AE-Keto drug”, “4% 2-HPβCD.” for “2% 2-hydroxypropyl-β-cyclodextrin (2-HPβCD).”, “655” for “1277”, “2.4” for “4.5”, “310” for “254”

[3] = molecular target: T1, cysteine-34 of human serum albumin (Homo sapiens, UniProt P02768); experiment: Binding specificity to cysteine-34 of human serum albumin in human plasma (HIC); assay type: in vitro ADME; conditions: 5 minutes at 37° C.
T1 construct: from tissue; host or cells: human plasma (frozen, thawed, filtered)
T1 sequence (P02768 25-609): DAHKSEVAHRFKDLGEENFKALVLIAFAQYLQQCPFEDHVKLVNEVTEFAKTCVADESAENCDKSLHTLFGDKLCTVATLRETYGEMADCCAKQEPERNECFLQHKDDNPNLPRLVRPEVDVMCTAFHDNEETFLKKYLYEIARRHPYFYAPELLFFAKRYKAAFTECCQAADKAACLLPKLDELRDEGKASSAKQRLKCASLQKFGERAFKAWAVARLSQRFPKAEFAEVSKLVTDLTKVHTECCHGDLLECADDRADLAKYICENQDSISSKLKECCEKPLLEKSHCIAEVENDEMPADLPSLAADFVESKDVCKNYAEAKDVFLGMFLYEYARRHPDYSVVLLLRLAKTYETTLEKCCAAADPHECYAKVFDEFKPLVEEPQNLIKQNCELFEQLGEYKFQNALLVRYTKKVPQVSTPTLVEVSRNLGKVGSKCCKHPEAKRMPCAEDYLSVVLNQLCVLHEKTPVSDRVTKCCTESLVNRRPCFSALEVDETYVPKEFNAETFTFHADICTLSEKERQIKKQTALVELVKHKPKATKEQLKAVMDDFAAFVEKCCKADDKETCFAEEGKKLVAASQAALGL
Protocol: The albumin-binding auristatin-Sulf07 derivatives were reconstituted in 50 mM sodium phosphate buffer pH 7.6 and 5% sucrose which contained 2-HPβCD. 2% HPβCD concentration was used to reconstitute the AE-Keto-Sulf07 and 4% for the AE-Ester-Sulf07 respectively. Both drugs were reconstituted at a concentration of 1 mg/mL (AE-Ester-Sulf07 780 μM, AE-Keto-Sulf07 880 μM).
Human plasma was removed from −80° C. storage and allowed to reach room temperature. The thawed plasma was spun down at 13.6 kRPM for 60 seconds, the supernatant was filtered through filter needle (5 μm) and subsequently through a 0.45 μm CA membrane. 180 μL of the appropriate plasma was used for each binding experiment. The plasma was incubated at 37° C. using an Eppendorf Thermomixer C. After 30 minutes incubation 20 μL of the appropriate albumin-binding auristatin-Sulf07 derivative was added. The albumin-binding drug was allowed to react in the plasma for 5 minutes at 37° C. After 5 minutes the solution was analyzed directly by HPLC hydrophobic interaction chromatography (HIC, method 6, 250 nm) to confirm the site specific conjugation to albumin and formation of the albumin drug conjugate.

albumin in rat plasma = molecular target: T2, albumin in rat plasma (Rattus norvegicus, UniProt P02770); experiment: Binding kinetics to albumin in rat plasma; assay type: in vitro ADME, Sprague Dawley rat; conditions: 37° C.
T2 construct: CD1 murine plasma and Sprague Dawley rat plasma were removed from −80° C. storage; from tissue; host or cells: Sprague Dawley rat plasma (frozen, thawed, filtered)
T2 sequence (P02770 25-608): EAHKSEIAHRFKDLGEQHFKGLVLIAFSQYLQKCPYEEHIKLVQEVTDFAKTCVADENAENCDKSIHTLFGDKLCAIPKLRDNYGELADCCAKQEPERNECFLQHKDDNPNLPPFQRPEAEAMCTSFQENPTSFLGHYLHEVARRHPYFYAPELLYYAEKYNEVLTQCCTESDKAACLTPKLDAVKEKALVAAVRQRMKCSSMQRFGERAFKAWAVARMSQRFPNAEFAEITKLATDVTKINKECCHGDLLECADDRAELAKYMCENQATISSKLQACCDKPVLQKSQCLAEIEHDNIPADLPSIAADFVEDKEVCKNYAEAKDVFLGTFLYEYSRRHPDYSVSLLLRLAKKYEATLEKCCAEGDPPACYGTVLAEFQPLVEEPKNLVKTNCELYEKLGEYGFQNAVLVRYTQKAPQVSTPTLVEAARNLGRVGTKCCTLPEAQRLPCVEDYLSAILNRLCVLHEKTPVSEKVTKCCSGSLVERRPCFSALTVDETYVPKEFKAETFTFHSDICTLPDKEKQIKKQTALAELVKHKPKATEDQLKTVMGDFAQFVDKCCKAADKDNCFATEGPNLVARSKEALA
Protocol: CD1 murine plasma and Sprague Dawley rat plasma were removed from −80° C. storage and allowed to reach room temperature. The thawed plasma was spun down at 13.6 kRPM for 60 seconds, the supernatant was filtered through a filter needle (5 μm) and subsequently through a 0.45 μm CA membrane.
All binding experiments were carried out in triplicate. The plasma was incubated at 37° C. using an Eppendorf Thermomixer C. After 30 minutes incubation 40 μL of the appropriate albumin-binding auristatin-Sulf07 derivative was dissolved in its reconstitution solution and added to the plasma. Samples (40 μL) were taken after 15 seconds, 2 minutes, 4 minutes, 8 minutes and 15 minutes (5 samples).
The samples were immediately added to 160 μL of acetonitrile (containing 4 μg/mL of 'MMAE as an internal standard) and vortexed for 1 minute.
The solutions were pipetted into an Impact plasma precipitation plate (shaken for 60 seconds) and filtered by vacuum onto a 96 well plate. Remaining drug was determined by LCMS quantification (method 5, 30 μL injection) using MRM MS2 negative mode (multiple reaction monitoring). Parent ions: auristatin F (Mass-744.8), AE-Keto-Sulf07 (Mass-1135.1) and AE-Ester-Sulf07 (Mass-1283.2). Percentage of binding was determined by comparing the AUC for AE-Keto-Sulf07 and AE-Ester-Sulf07 to calibration curves generated by LCMS for each compound.

[4] = Accelerated degradation of lyophilized auristatin formulations; assay type: physicochemical; conditions: 55° C. for up to 264 hours
Protocol: The APIs were dissolved in the lyophilization buffer which contained 2-HPβCD, 10 mM sodium citrate pH 6.2, 50% tert-butyl alcohol (V/V)). For the AE-Keto derivatives 2% (w/v) 2-HPβCD was employed to dissolve the AE-Keto APIs at 1.27 mM concentration; for the AE-Ester derivatives 4% (w/v) 2-HPβCD was used to dissolve the APIs at 1.05 mM concentration. The dissolved APIs were sterile filtered using an Acrodisc Fluorodyne II syringe filter (0.2 μm). The sterile solutions were pipetted into lyophilization vials which were then partially sealed using a rubber stopper. The vials were subsequently placed into the freeze dryer for lyophilization. The vials were frozen on the freeze dryer shelf at −40° C. for 2 hours, after 2 hours main drying was started. Main drying was run for 26 hours, parameters: shelf temperature −20° C., vacuum 0.0048 mbar. After main drying, final drying was initiated. Final drying was run for 16 hours, parameters: shelf temperature 20° C., vacuum 0.0047 mbar. […]
The sealed vials were incubated at 55° C. using an Eppendorf Thermomixer C with a plate insert (Smartblock) and lid. […] Stability of the APIs was determined by HPLC (method 8, 254 nm for AE-Keto derivatives, 310 nm for AE-Ester derivatives). The percentage of maleimide hydrolysis at each time point was determined by comparison to the AUC for each API at time 0.

[5] = 3.0 mg/kg six times twice weekly

Compound	tumor response ([1]; 0.3 mg/kg six times twice weekly, until day 21)	stability of the reconstituted drug (maleimide hydrolysis and loss of API) [2]	maleimide hydrolyzed [2] [%]	specificity of binding to albumin [3]	albumin binding in plasma (albumin in rat plasma)	stability under accelerated degradation conditions (maleimide hydrolysis) [4]	body weight [1, 5]	side effects [1, 5]	tumor response ([1]; 3.0 mg/kg six times twice weekly, day 19 until end of study on day 37)	p, antitumor efficacy versus auristatin E ([1]; 3.0 mg/kg versus auristatin E 0.3 mg/kg, six injections twice weekly, day 27 to day 37)	final tumor volume ([1]; 3.0 mg/kg, day 37) [mm^3]
CC[C@H](C)[C@@H]([C@@H](CC(=O)N1CCC[C@H]1[C@H](OC)[C@@H](C)C(=O)N[C@H](C)[C@@H](O)c1ccccc1)OC)N(C)C(=O)[C@@H](NC(=O)[C@H](C(C)C)N(C)C)C(C)C [auristatin E]	stable disease (stable disease >75-125%)	–	–	–	–	–	–	–	–	–	–
2-(2-(1-(4-(((1S,2R)-2-((2R,3R)-3-((S)-1-((3R,4R,5S)-4-((S)-2-((R)-2-(dimethylamino)-3-methylbutanamido)-N,3-dimethylbutanamido)-3-methoxy-5-methylheptanoyl)pyrrolidin-2-yl)-3-methoxy-2-methylpropanamido)-1-phenylpropoxy)carbonyl)phenyl)ethylidene)hydrazine-1-carbonyl)-5-(6-(2,5-dioxo-2,5-dihydro-1H-pyrrol-1-yl)hexanamido)benzenesulfonic acid [AE-Ester-Sulf07]	–	more stable than AE-Ester-EMCH	2.5	demonstrated	very rapid	more stable than the respective EMCH derivatives	–	–	–	–	–
CC[C@H](C)[C@@H]([C@@H](CC(=O)N1CCC[C@H]1[C@H](OC)[C@@H](C)C(=O)N[C@H](C)C(=NNC(=O)c1ccc(NC(=O)CCCCCN2C(=O)C=CC2=O)cc1S(=O)(=O)O)c1ccccc1)OC)N(C)C(=O)[C@@H](NC(=O)[C@H](C(C)C)N(C)C)C(C)C [AE-Keto-Sulf07, 2-(2-((R)-2-((2R,3R)-3-((S)-1-((3R,4S,5S)-4-((S)-2-((S)-2-(dimethylamino)-3-methylbutanamido)-N,3-dimethylbutanamido)-3-methoxy-5-methylheptanoyl)pyrrolidin-2-yl)-3-methoxy-2-methylpropanamido)-1-phenylpropylidene)hydrazine-1-carbonyl)-5-(6-(2,5-dioxo-2,5-dihydro-1H-pyrrol-1-yl)hexanamido)benzenesulfonic acid]	–	more stable than AE-Keto-EMCH	2.2	demonstrated	very rapid	more stable than the respective EMCH derivatives	only a slight reduction in body weight growth compared to the control	no detectable side effects	complete remission (complete remission <10%)	< 0.01	1
